Laboratory results: patent US20080081796A1, “TREATMENT OF MUCOSITIS” (priority 2002, published 2008)

Test system: oral mucositis induced by acute radiation
Assay: oral mucositis induced by acute radiation in an animal model (Animal Study and Animal Study II)
Type: in vivo, Golden Syrian hamsters
Details: for severity of oral mucositis (average oral mucositis scores, FIG. 1): topical TID 0.25 ml to left cheek pouch, 40 Gy radiation on day 0, versus water control
Excerpt: The objective of this study was to evaluate the effect of the nucleoside derivative, 5′-adenosine-diphosphate ribose, when administered topically, on the frequency, severity and duration of oral mucositis induced by acute radiation in an animal model.
The animals in the study ([…] Golden Syrian hamsters, Charles River Lab., ages 5-6 weeks, approximately 90 g average body weight) were randomly and prospectively divided into three groups of eight animals each. The particular test material to be applied to the animal mucosa during the study essentially defined each group. The test materials were water (Group 1 control), ADP-ribose 100 μg/ml in water (Group 2) and ADP-ribose 500 μg/ml in water (Group 3).
Mucositis was induced in the animals with a standardized acute radiation protocol. A single dose of radiation (40 Gy/dose) was administered to each animal on day 0. Irradiation targeted the left buccal pouch mucosa at a rate of 121.5 cGy/minute. The left buccal pouch was everted, fixed and isolated using a lead shield. Prior to and following radiation on day 0, each animal was dosed with their respective test materials in the manner described below. Also, immediately prior to radiation, the buccal mucosa was everted and any excess test material solution was wiped away using a clean tissue or cotton swab.
The respective test materials were then applied topically TID to the irradiated mucosa of each animal on day 1 to day 20 of the study. To accomplish this, a tuberculin syringe without a needle, containing 0.25 ml of the test material, was inserted into the base of the left cheek pouch and the test material deposited accordingly. This was done TID (first between 8-9:00 am; second between […] and 1:00 pm; third between 4-6:00 pm). Any developing mucositis was evaluated and scored on alternate days from day 6-28. Each animal was also weighed and its survival recorded on day 1 to day 28.
During the study, each animal was tested for mucositis scores, weight change and survival. For the evaluation of mucositis, the animals were anesthetized with inhalation anesthetics, and the left pouch everted. The developing mucositis was scored visually by comparison to a validated photographic scale, ranging from 0 for normal, to 5 for severe ulceration (clinical scoring). In descriptive terms, this scale is defined in the following table:
A mucositis score of 1-2 represents a mild stage of the disease. A score of 3-5 indicates moderate to severe mucositis. Following visual scoring, a photograph was taken of each animal's mucosa using a standardized technique. At the conclusion of the experiment, all film was developed and the photographs randomly numbered. At least two independent trained observers graded the photographs in blinded fashion using the above-described scale (blinded scoring). Results of the mucositis scores are graphically illustrated in FIG. 1.
The animal study described in Example 2 was then repeated with an identical protocol but with modified ADP-ribose doses. The groups in this study were treated with water (control), ADP-ribose at 100 μg/ml in water (Compound F), ADP-ribose at 45 μg/ml in water (Compound G), and ADP-ribose at 15 μg/ml in water (Compound H). […] Animals in the control group had mucositis scores ≧3 for approximately 10 days, whereas the ADP-ribose group had scores of approximately 3 for only 4 days.

Substance: 5′-adenosine-diphosphate ribose [ADP-ribose]
- severity of oral mucositis (average oral mucositis scores, FIG. 1) (Example 3, ADP-ribose at 100 μg/ml in water (Compound D group)): decreased the severity of oral mucositis
- severity of oral mucositis (average oral mucositis scores, FIG. 1) (Example 3, ADP-ribose at 500 μg/ml (Compound E group)): decreased the severity of oral mucositis
- effect on oral mucositis at 100 μg/ml compared with 500 μg/ml (Example 3, FIG. 1, comparison of the two ADP-ribose concentrations): superior to that of ADP-ribose at 500 μg/ml
- healing of oral mucositis (Example 4, Animal Study II, FIG. 2, ADP-ribose at a 45 μg/ml dose (Compound G)): maximum healing of oral mucositis that was statistically significant
- time with mucositis scores of approximately 3 (Example 4, Animal Study II, FIG. 2, ADP-ribose group, control group had scores ≧3 for approximately 10 days): 4 days
- healing of ulcers associated with mucositis (mucositis score ≧3) relative to the control (Example 4, Animal Study II, FIG. 2, ADP-ribose treatment groups (100, 45, 15 μg/ml in water)): healed faster
